Read-outs that look alike come from different tables or passages of the source.
What was measured:
Granzyme B, TRAIL = assay: Expression of cytotoxic molecules (Gzm B, TRAIL) in CD8 and CD4 T cells; format: cell-based, human
[1] = tested on: Interferon Stimulated Genes (ISGs); assay: RNASeq of primary CD4 T cells; format: cell-based, human; details: IL-2 and HODHBt vs IL-2 and DMSO
Procedure: RNASeq was performed in primary CD4 T cells treated with HODHBt following the method of Bosque et al., CELL REP. 2017; 18(5):1324-1334, the disclosure of which is hereby incorporated by reference in its entirety.
Total RNA was extracted from cells using Trizol (Invitrogen 15596), polyadenylated RNA was enriched using NEXTflex Poly(A) Beads (Bioo Scientific 512980), and stranded libraries were prepared using a NEXTflex Rapid Directional qRNA-Seq Kit (Bioo Scientific 5130-02D). Sequencing was performed by the Iowa Institute of Human Genetics Genomics Division on an Illumina HiSeq 2500 using 125 base pair (bp) paired-end reads. Raw paired sequences were first trimmed to remove Illumina sequencing adapters and Bioo Scientific randomized 8-mer molecular indexes using Trim Galore! […] For RNA-Seq tracks, reads were then compiled using the genomecov (-split) function of bedtools 2.25.0, normalized by dividing the number of hg19-mapped reads within each sample by the average number of hg19-mapped reads across all nine samples, combined across donors, and visualized on the UCSC Genome Browser. For differential expression analysis, reads were counted over UCSC hg19 genes (26,364 entries) using the featureCounts (-p -B -C -M) function of Subread 1.5.0 (Liao et al., 2014). […]

[2] = tested on: HIV-infected cultured TCM cells; assay: Killing of HIV-infected cultured TCM cells by expanded autologous NK cells; format: cell-based, human; details: autologous NK cells expanded with IL-2 and HODHBt
Excerpt: As for CD8 T cells, STATS play an important role in the expansion of NK cells. As such, it was hypothesized that inhibiting STAT SUMOylation may enhance the expansion of NK cells. This has important implications for adoptive cell immunotherapies as NK cells are increasingly becoming an attractive alternative to T cell therapies. In order to address whether inhibiting STAT SUMOylation may enhance NK proliferation in vitro, NK cells were isolated from two human HIV-negative donors and expanded using Miltenyi Biotec NK MACS Medium in the presence of 500 IU/ml of IL-2 and in the presence or absence of HODHBt.

NK cells = tested on: NK cells
Procedure: To determine if STAT SUMOylation increases Gzm B expression in NK cells, isolated human NK cells were analyzed after a 3-day incubation with either IL-2, IL-15, HODHBt, IL-2+IL-15, HODHBt+IL-2, HODHBt+IL-15, or HODHBt+IL-2+IL-15.
To further characterize the effects of STAT SUMOylation inhibition in NK cell function, primary human NK cells were isolated and cultured with IL-15 in the presence or absence of HODHBt. 48 hours later, cells were phenotyped by flow cytometry.
To characterize the induction of other proteins known to be important for the cytolytic activity of NK cells, primary human NK cells were isolated from 6 male and 6 female donors and cultured with IL-15 in the presence or absence of HODHBt. 48 hours later, levels of Granzyme A (FIG. 18A), Perforin (FIG. 18B), Granulysin (FIG. 18C), TRAIL (FIG. 18D) and Fas ligand (FASL) (FIG. 18E) were analyzed by flow cytometry.
Antibody-dependent cell-mediated cytotoxicity (ADCC) is mediated by the recognition of an antibody bound to a cell through an Fc receptor present in NK cells, mostly CD16 (FCGR3A). To address whether inhibiting STAT SUMOylation alters CD16 expression in the surface of NK cells, freshly isolated NK cells were treated with either IL-15, HODHBt or a combination of both for 48 hours and surface expression of CD16 was measured by flow cytometry.
Since IL-15 activated STATs, it was hypothesized that STATs, and in particular STAT1, was controlling expression of CXCR5 (C—X—C Motif Chemokine Receptor 5) and that inhibiting STAT SUMOylation enhances CXCR5 expression and promotes migration towards a CXCL13 (C—X—C Motif Chemokine Ligand 13) gradient. CXCL13 controls homing of lymphocytes to follicles in lymph nodes; however whether this mechanism of regulation exists in human NK cells and whether IL-15 controls expression were unknown. To address which one of the two scenarios was potentially playing a role in the presence of NK cells within the follicles, human NK cells were treated with IL-15, HODHBt or a combination of both for 48 hours. Surface expression of CXCR5 and viability were next measured by flow cytometry.
To phenotype the cells, 1×10^5 cells were stained with a viability dye (Fixable Viability Dye eFluor 450, Affymetrix, eBioscience, San Diego, CA) and the surface marker-specific mAb specific for human: PE-anti-CD25 (Caltag, Burlingame, CA) and PE-anti-CD69 (Caltag, Burlingame, CA) followed by flow cytometric analysis in a BD FACScanto II flow cytometer using the FACSDiva software (Becton Dickinson, Mountain View, CA) and analyzed using FlowJo (Tree Star Inc., Ashland, OR).

CD4 T cells = assay: Expansion of activated CD4 T cells with IL-2; format: cell-based, human; details: activated in vitro, IL-2, vs DMSO
Excerpt: For these tests, human CD4 and CD8 T cells were activated in vitro and expanded with interleukin-2 (IL-2) in the presence of DMSO (control vehicle) or HODHBt.

## O=c1c2ccccc2nnn1O [HODHBt]
Granzyme B, TRAIL
  levels of Gzm B in CD8 T cells: increased the levels of Gzm B in CD8 T cells
Granzyme B, TRAIL; cultured for three days
  expression of Granzyme B in activated CD8 T cells: increased the levels of expression
  expression of TRAIL in activated CD8 T cells: increased the levels of expression
[1]
  expression of Interferon Stimulated Genes (RNASeq): induction of several Interferon Stimulated Genes
[2]
  killing of HIV-infected cultured TCM cells by NK cells expanded with compound: as well as HIV-infected cultured TCM cells from the same donor
NK cells; 3-day incubation, with IL-2, IL-15 or both
  Gzm B expression in NK cells (percentage of cells and MFI): increased Gzm B expression in NK cells treated with IL-2, IL-15 or a combination of both
NK cells; 48 hours, with or without IL-15
  surface expression of CD16 on NK cells: sufficient to increase the levels of CD16 expression in NK cells independent of the presence of IL-15
NK cells; IL-15 in the presence of HODHBt, 48 hours
  surface expression of CXCR5 on NK cells: dramatically increased in the presence of HODHBt
NK cells; combination of IL-15 and HODHBt, 48 hours
  expression of GZMB in NK cells: greatly increased the expression of GZMB
NK cells; combination of IL-15 and HODHBt, vs IL-15 control, 48 hours
  expression of Granzyme A, Perforin, Granulysin, TRAIL and FASL in NK cells: enhanced gene expression above IL-15 control
NK cells; human, 48 h
  viability / survival of NK cells: did not affect the viability of NK cells either alone or in combination with IL-15
NK cells; in combination with IL-15, vs IL-15 alone, 48 hours
  surface expression of CD69 and CD25 on NK cells: enhanced the expression of both surface markers over IL-15 alone
NK cells; single agent, 48 hours
  surface expression of CD25 on NK cells: did not change the surface expression
  surface expression of CD69 on NK cells: did not change the surface expression of CD69
NK cells; single agent, vs media control, 48 hours
  expression of GZMB in NK cells: did not have any effect over media control
CD4 T cells
  expansion of CD4 T cells: increased expansion

From patent US12441693B2, “Targeting STAT sumoylation to enhance immune responses” (THE GEORGE WASHINGTON UNIVERSITY, priority 2018, dated 2025)
